In one data set the target is EGFR (Homo sapiens, UniProt P00533). Kind of data set: In vitro inhibition of EGFR, Flash Plate or glass-fiber filter technology (C2). In kind it is biochemical. On the set-up: 0.5 μg EGFR-kinase domain/well. The settings on record: EGFR-kinase domain, 5.0 μM unlabeled ATP, read-out: Kinase activity.(C2): pIC50 (converted). In short, it runs like this: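 Two radiometric formats were used, each with 5.0 μM unlabeled ATP, [33P]ATP, 0.5 μg EGFR kinase domain and compounds from 1·10^−10 to 1·10^−6 M. Glass-fiber filter: 25° C for 10 min, pH 7.5, Mn2+/Mg2+, acid-stopped, phosphorimager read. Streptavidin Flash Plate: biotinylated poly(GT), pH 8.0, 30° C for 60 min.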

For another data set, the system named is A431 cells. Kind of data set: Proliferation assay on the squamous carcinoma cell line A431 cells (C5). The settings on record: Homo sapiens, A-431; 72 hours with compounds; MTT cell viability assay; read-out: A431 cell (C5): pIC50 (converted). Type of data set: cell-based. The method, then:
The squamous carcinoma cell line (A431) was used in a cell proliferation assay, to assess the inhibitory effect of the compounds in whole cells.
In a first step the A431 cells were incubated for 24 hours in the presence of 10% FCS serum. In the second step the cells were incubated for 72 hours with the compounds to be tested at a final concentration of 100 ng/ml. The effect of the compounds on the cell proliferation was finally assessed in a standard MTT cell viability assay.

The next data set deals with SKOV3 cells. The data set is described as follows: Serum starved proliferation assay on the ovarian carcinoma SKOV3 cells (C3). Type of data set: cell-based. Particulars: EGF stimulated (100 ng/ml, 72 hours, serum free) or 72 hours with compounds, MTT cell viability assay; for IC50: Homo sapiens, SK-OV-3, 72 h, read-out: SKOV3 cell (C3): pIC50 (converted). In short, it runs like this:
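MTT viability read-out in SKOV3 cells after a 24 h pre-incubation in 10% FCS, in one of two formats. EGF-stimulated version: serum-free compound exposure followed by 100 ng/ml EGF (final) for 72 h at 37 °C, 5% CO2. Otherwise, compound alone for 72 h.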
Background: Formazan colour is commonly taken as a measure of viable cells.

Chain of EGFR (P00533 712-979 limits assumed): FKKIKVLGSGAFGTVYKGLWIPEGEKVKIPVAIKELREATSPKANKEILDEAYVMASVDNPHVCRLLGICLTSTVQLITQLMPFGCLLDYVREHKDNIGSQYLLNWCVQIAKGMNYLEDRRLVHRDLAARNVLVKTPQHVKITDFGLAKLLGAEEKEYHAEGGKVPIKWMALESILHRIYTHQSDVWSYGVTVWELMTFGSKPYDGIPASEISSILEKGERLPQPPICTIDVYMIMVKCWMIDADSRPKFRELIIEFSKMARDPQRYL

As to `COc1cc2ncnc3c2cc1OCCCCCN(C(=O)OC(C)(C)C)Cc1ccc(Br)cc1N3` [Compound 19, 4,6-ethanediylidenepyrimido[4,5-b][6,1,12]benzoxadiazacyclo-pentadecine-13(8H)-carboxylic acid, 17-bromo-9,10,11,12,14,19-hexahydro-20-methoxy-, 1,1-dimethylethyl ester], the IC50 on EGFR was 0.0631 µM; with A431 cells it was greater than 3.16 µM; in the data set with SKOV3 cells it was 5.01 µM.

For the compound `COc1cc2ncnc3c2cc1OCCCCCNCc1ccc(Br)cc1N3` [Compound 20, 4,6-ethanediylidenepyrimido[4,5-b][6,1,12]benzoxadiazacyclo-pentadecine, 17-bromo-8,9,10,11,12,13,14,19-octahydro-20-methoxy-], the IC50 on EGFR was 0.0251 µM; in the data set on A431 cells it was 1.26 µM; with SKOV3 cells it was 0.229 µM.

In the case of `COc1cc2ncnc3c2cc1OCCCCOCCc1ccc(Cl)cc1N3` [Compound 23, 4,6-ethanediylidene-13H-pyrimido[4,5-b][6,11,1]benzodioxaazacyclo-pentadecine, 17-chloro-8,9,10,11,14,19-hexahydro-20-methoxy-], the values for the IC50 on EGFR, in the data set with A431 cells and in the data set with SKOV3 cells were 0.01 µM, 0.501 µM and 0.0603 µM, respectively.

For `COc1cc2ncnc3c2cc1OCCCCCCCCOc1cccc(c1)N3` [Compound 25, 22H-4,6-ethanediylidene-21,17-methenopyrimido[5,4-d][1,12,6]dioxaazacycloeicosine, 8,9,10,11,12,13,14,15-octahydro-24-methoxy-], the values for the IC50 on EGFR, with A431 cells and with SKOV3 cells were 0.631 µM, greater than 3.16 µM and greater than 10 µM, respectively.

For the compound `COc1cc2ncnc3c2cc1OCCCNC(=O)CCc1ccc(Cl)cc1N3` [Compound 26, 4,6-ethenopyrimido[4,5-b][6,1,10]benzoxadiazacyclopentadecin-12(13H)-one, 17-chloro-8,9,10,11,14,19-hexahydro-20-methoxy-], the IC50 is 0.00251 µM at EGFR, 2 µM in the data set with A431 cells and 0.12 µM in the data set on SKOV3 cells.

Usually melting point stands for the temperature, or range, at which the solid turns liquid. Turning to `COc1cc2ncnc3c2cc1OCCNC(=O)CNCc1ccc(Cl)cc1N3` [Compound 73, 4,6-ethanediylidenepyrimido[4,5-b][6,1,9,12]benzoxatriazacyclopentadecin-11(8H)-one, 17-chloro-9,10,12,13,14,19-hexahydro-20-methoxy-], the melting point lay in the range of 294.2 to 295.2 °C. Further, at EGFR, the IC50 was 0.0398 µM. Besides, the IC50 with SKOV3 cells was 3.98 µM.

Regarding `COc1cc2ncnc3c2cc1OCCCNC(=O)CN(C)Cc1ccc(Cl)cc1N3` [Compound 74, 4,6-ethanediylidene-12H-pyrimido[4,5-b][6,1,10,13]benzoxatriazacyclohexadecin-12-one, 18-chloro-8,9,10,11,13,14,15,20-octahydro-21-methoxy-14-methyl-], the melting point was 240 to 240.3 °C. In addition, the IC50 at EGFR was 0.0251 µM. Further, in the data set on SKOV3 cells, the IC50 is 1 µM.

For the compound `COc1cc2ncnc3c2cc1OCCNC(=O)CCNCc1ccc(Cl)cc1N3` [Compound 75, 4,6-ethanediylidene-8H-pyrimido[4,5-b][6,1,9,13]benzoxatriazacyclohexadecin-11(12H)-one, 18-chloro-9,10,13,14,15,20-hexahydro-21-methoxy-], the melting point was 254.4 to 256.5 °C. Also, the IC50 on EGFR is 0.0631 µM. Moreover, in the data set on SKOV3 cells, the IC50 was 6.31 µM.

With `COc1cc2ncnc3c2cc1OCCCNC(=O)C1CCC(=O)N1Cc1ccc(Cl)cc1N3` (stereo not drawn) [Compound 76, 4,6-etheno-8H-pyrimido[4,5-b]pyrrolo[2,1-l][6,1,10,13]benzoxatriazacyclohexadecine-12,15(14H)-dione, 20-chloro-9,10,11,12a,13,17,22-heptahydro-23-methoxy-], the melting point was 350.5 to 352.5 °C. Moreover, the IC50 on EGFR was 0.0251 µM. Besides, in the data set with SKOV3 cells, the IC50 was 0.2 µM.

The compound `COc1cc2ncnc3c2cc1OCCNC(=O)C1CCCN1Cc1cc(F)c(Cl)cc1N3` (stereo not drawn) [Compound 78, 4,6-ethanediylidenepyrimido[4,5-b]pyrrolo[2,1-k][6,1,9,12]benzoxatriazacyclopentadecin-11(8H)-one, 19-chloro-18-fluoro-9,10,11a,12,13,14,16,21-octahydro-22-methoxy-] showed a melting point of 261.4 to 264 °C. Further, the IC50 at EGFR was 0.0316 µM. The IC50 with SKOV3 cells is 0.316 µM.

`COc1cc2ncnc3c2cc1OCCNC(=O)CN(C)Cc1cc(F)c(Cl)cc1N3` [Compound 79, 4,6-ethanediylidenepyrimido[4,5-b][6,1,9,12]benzoxatriazacyclopentadecin-11(8H)-one, 17-chloro-16-fluoro-9,10,12,13,14,19-hexahydro-20-methoxy-13-methyl-] yielded a melting point of 306.3 to 307.4 °C. The IC50 on EGFR is 0.631 µM. For the same compound, in the data set on SKOV3 cells, the IC50 is 10 µM.

As to `COc1cc2ncnc3c2cc1OCCCNC(=O)CN(C)Cc1cc(F)c(Cl)cc1N3` [Compound 80, 4,6-ethanediylidene-12H-pyrimido[4,5-b][6,1,10,13]benzoxatriazacyclohexadecin-12-one, 18-chloro-17-fluoro-8,9,10,11,13,14,15,20-octahydro-21-methoxy-14-methyl-], the melting point lay within 260.4 to 261.1 °C. In addition, on EGFR, the IC50 was 0.02 µM. For the same compound, the IC50 with SKOV3 cells is 0.0631 µM.

`COc1cc2ncnc3c2cc1OCCNC(=O)CNCc1cc(F)c(Cl)cc1N3` [Compound 81, 4,6-ethanediylidenepyrimido[4,5-b][6,1,9,12]benzoxatriazacyclopentadecin-11(8H)-one, 17-chloro-16-fluoro-9,10,12,13,14,19-hexahydro-20-methoxy-] came in with a melting point of 304.2 to 304.4 °C. On EGFR, the IC50 was 0.251 µM. Moreover, in the data set with SKOV3 cells, the IC50 was 0.251 µM.

On to `COc1cc2ncnc3c2cc1OCCCNC(=O)CNCc1cc(F)c(Cl)cc1N3` [Compound 82, 4,6-ethanediylidene-12H-pyrimido[4,5-b][6,1,10,13]benzoxatriazacyclohexadecin-12-one, 18-chloro-17-fluoro-8,9,10,11,13,14,15,20-octahydro-21-methoxy-], for which the melting point was in the range of 311 to 311.9 °C. Moreover, the IC50 at EGFR is 0.02 µM. Besides, the IC50 in the data set on SKOV3 cells was 0.0794 µM.

`COc1cc2ncnc3c2cc1OCCNC(=O)C1CCCN1Cc1ccc(Cl)cc1N3` (stereo not drawn) [Compound 83, 4,6-ethanediylidenepyrimido[4,5-b]pyrrolo[2,1-k][6,1,9,12]benzoxatriazacyclopentadecin-11(8H)-one, 19-chloro-9,10,11a,12,13,14,16,21-octahydro-22-methoxy-] yielded a melting point of 262 to 262.8 °C. Further, the IC50 on EGFR is 0.501 µM. Also, the “SKOV3 cell (C3): pIC50” value in the data set on SKOV3 cells is recorded as 6.1.

For `COc1cc2ncnc3c2cc1OCCCNC(=O)CNCc1ccc(Cl)cc1N3` [Compound 99, 4,6-ethanediylidene-12H-pyrimido[4,5-b][6,1,10,13]benzoxatriazacyclohexadecin-12-one, 18-chloro-8,9,10,11,13,14,15,20-octahydro-21-methoxy-], the melting point fell in the range of 304.6 to 304.8 °C. The IC50 at EGFR is 0.0251 µM. In the data set on SKOV3 cells, the IC50 is 0.2 µM.

The compound `COc1cc2ncnc3c2cc1OCCCCNC(=O)C1CCCN1Cc1ccc(Cl)cc1N3` (stereo not drawn) [Compound 100, 4,6-ethanediylidenepyrimido[4,5-b]pyrrolo[2,1-m][6,1,11,14]benzoxatriazacycloheptadecin-13(8H)-one, 21-chloro-9,10,11,12,13a, 14,15,16,18,23-decahydro-24-methoxy-] had a melting point of 226.3 to 227.7 °C. Moreover, at EGFR, the IC50 is 0.00794 µM. Moreover, in the data set on SKOV3 cells, the IC50 is 0.126 µM.

As for `COc1cc2ncnc3c2cc1OCCCNCCN(C)Cc1ccc(Cl)cc1N3` [Compound 114, 4,6-ethanediylidene-8H-pyrimido[4,5-b][6,1,10,13]benzoxatriazacyclohexadecine, 18-chloro-9,10,11,12,13,14,15,20-octahydro-21-methoxy-14-methyl-], the melting point is 202.8 to 203.6 °C. Besides, the IC50 at EGFR was 0.01 µM. In addition, the IC50 in the data set with SKOV3 cells was 0.0398 µM.

For `COc1cc2ncnc3c2cc1OCCCCNCCN(C)Cc1ccc(Cl)cc1N3` [Compound 115, 4,6-ethanediylidenepyrimido[4,5-b][6,1,11,14]benzoxatriazacycloheptadecine, 19-chloro-8,9,10,11,12,13,14,15,16,21-decahydro-22-methoxy-15-methyl-], the melting point was 196.9 to 197.8 °C. Besides, at EGFR, the IC50 is 0.00631 µM. In addition, in the data set on SKOV3 cells, the IC50 was 0.126 µM.

`COc1cc2ncnc3c2cc1OCCNCCN(C)Cc1ccc(Cl)cc1N3` [Compound 116, 4,6-ethanediylidenepyrimido[4,5-b][6,1,9,12]benzoxatriazacyclopentadecine, 17-chloro-8,9,10,11,12,13,14,19-octahydro-20-methoxy-13-methyl-] returned a melting point of 195.8 to 196.6 °C. The IC50 on EGFR is 0.2 µM. The IC50 in the data set on SKOV3 cells was 0.0631 µM.

The record behind these values is patent US8394786B2, “Quinazoline derivatives” (Janssen Pharmaceutica N.V., priority 2003, dated 2013).
